For the data set the following is noted: Liquid.

Numbers after ± are expanded uncertainties.

Turning to `CCC` [propane], the “vapor or sublimation pressure” value runs as follows: (273.15 K) 474 ± 2.6 kPa; (278.15 K) 550.8 ± 2.8 kPa; (283.15 K) 636 ± 2.9 kPa; (293.15 K) 836.2 ± 3.4 kPa; (303.15 K) 1077.6 ± 4 kPa; (313.15 K) 1368 ± 4.7 kPa.
Turning to `C=CC` [propene], the “vapor or sublimation pressure” value (273.15 K) is 586 ± 2.8 kPa; the “vapor or sublimation pressure” value (278.15 K) is recorded as 678.5 ± 3 kPa; the “vapor or sublimation pressure” value (283.15 K) is reported as 780.8 ± 3.3 kPa; the “vapor or sublimation pressure” value (293.15 K) is 1019 ± 3.8 kPa; the “vapor or sublimation pressure” value (303.15 K) is listed as 1307.6 ± 4.6 kPa; the “vapor or sublimation pressure” value (313.15 K) was 1652.2 ± 5.6 kPa.

(Values after the NIST ThermoML archive (doi:10.1016/j.fluid.2006.03.009).)
